According to US12351574B2, “Selective ligands for modulation of GIRK channels” (Northeastern University, priority 2018, dated 2025):

Experiments:
GIRK1/2(I-V) = molecular target: T1, GIRK1/2(I-V) (UniProt P48542+P48549, I97V); assay: TEVC in Xenopus oocytes, single mutant GIRK1/2(I-V); format: cell-based, human GIRK1, mouse GIRK2; conditions: GIRK1/2(I-V) single mutant
T1 construct: expressed in transfected cells; host or cells: Xenopus laevis oocytes (cRNA injection)
T1 sequence (P48549 1-501): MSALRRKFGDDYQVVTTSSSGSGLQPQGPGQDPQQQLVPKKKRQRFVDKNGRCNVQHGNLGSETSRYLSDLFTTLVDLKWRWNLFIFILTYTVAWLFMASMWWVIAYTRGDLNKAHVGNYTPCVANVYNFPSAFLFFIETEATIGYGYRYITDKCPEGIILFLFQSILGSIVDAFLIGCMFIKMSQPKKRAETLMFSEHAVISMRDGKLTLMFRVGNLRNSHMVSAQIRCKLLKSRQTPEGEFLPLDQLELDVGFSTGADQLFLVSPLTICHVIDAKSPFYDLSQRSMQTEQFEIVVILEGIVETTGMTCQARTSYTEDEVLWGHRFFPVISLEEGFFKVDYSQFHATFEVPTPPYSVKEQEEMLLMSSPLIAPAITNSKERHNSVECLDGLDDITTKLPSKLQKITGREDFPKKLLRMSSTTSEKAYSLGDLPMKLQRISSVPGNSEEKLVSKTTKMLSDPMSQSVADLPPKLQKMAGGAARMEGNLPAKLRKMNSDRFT
T1 sequence (P48542 1-425 I97V): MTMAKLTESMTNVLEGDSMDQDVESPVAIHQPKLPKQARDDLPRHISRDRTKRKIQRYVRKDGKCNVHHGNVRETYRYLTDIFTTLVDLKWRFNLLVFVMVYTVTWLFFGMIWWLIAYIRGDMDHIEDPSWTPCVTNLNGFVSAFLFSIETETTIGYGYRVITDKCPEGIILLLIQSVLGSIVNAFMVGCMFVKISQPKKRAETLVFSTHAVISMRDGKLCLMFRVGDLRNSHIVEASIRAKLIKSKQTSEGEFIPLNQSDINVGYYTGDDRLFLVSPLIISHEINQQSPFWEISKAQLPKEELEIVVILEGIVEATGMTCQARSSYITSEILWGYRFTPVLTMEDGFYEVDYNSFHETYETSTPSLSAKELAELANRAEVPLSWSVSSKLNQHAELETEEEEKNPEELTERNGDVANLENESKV
Text: Molecular biology: For Xenopus oocyte expression, human GIRK1 and human GIRK4 cDNAs were subcloned into pGEMHE. For mammalian expression, human GIRK1 and human GIRK4 cDNAs were subcloned into pcDNA3 and pcDNA3.1/V5-His B, respectively (Invitrogen). Mouse GIRK2 cDNA was subcloned in the dual-function vector, pXoom. Point mutations were introduced using a standard Pfu-based mutagenesis technique according to the QuikChange protocol (Agilent). Mutations were verified by sequencing.
Electrophysiology of oocytes: Whole-oocyte currents were measured by conventional two-electrode voltage clamp (TEVC) with a GeneClamp 500 amplifier (Axon Instruments). Agarose cushion microelectrodes were filled with 1.5% (w/v) agarose in 3 M KCl and were used with resistances between 0.1 and 1.5 megaohms. […] Barium-sensitive basal currents from both groups, 1) Vehicle, 2) single concentration at 10 μM and 3) multiple concentrations of ML297 or GAT compounds in the presence of HK solution, were assessed at −80 mV using TEVC. Barium-sensitive currents were normalized to average basal current in the vehicle solutions. The HK solution contained the following: 96 mM KCl, 1 mM NaCl, 1 mM MgCl2, 5 mM KOH/HEPES, pH 7.4. The barium solution consisted of HK+10 mM BaCl2. Five to ten oocytes from the same batch (same frog) were recorded for each group, and the experiments were repeated in at least four batches. Data acquisition and analysis were carried out using pClamp9 (Molecular Devices) and OriginPro (Microcal) software.
To test these computational predictions, the inventors mutated each or both of the two M1 key wild-type GIRK4 subunit residues to the corresponding GIRK2 residues (GIRK4-V92I, GIRK4-T94V, GIRK4-V92I/T94V or GIRK4-dm) and vice-versa the GIRK2 residues to the corresponding GIRK4 ones (GIRK2-I97V, GIRK2-V99T, GIRK2-I97V/V99T or GIRK2-dm) (FIG. 35). […]

[1] = novel object recognition (NOR) test; format: in vivo, rat; conditions: 10 and 30 mg/kg
Protocol: Novel object recognition test (NORT): Novel object recognition test was performed in an open-field box measuring 100×100×20 cm as previously described. Prior to testing, the rats were allowed to explore the box for 5 min per day for 3 consecutive days with no objects present. Testing consisted of two 2 min trials. During a familiarization trial, two identical objects (plastic cylinders 6 cm in diameter and 12 cm tall in white and red) were placed in two adjacent corners. The animal was then released against the center of the opposite wall with its back to the objects. This was done to prevent coercion to explore the objects. The animals were regarded to be exploring when they were facing, sniffing, or biting the object with nose and/or forepaws. Immediately after familiarization, the rats received intraperitoneal (i.p.) injections of vehicle or ligands and were returned to its home cage. After a waiting period of 3 h (|T|=3 h), the rat was placed in the box again and test trial was performed. […] The times spent in exploring each object during both trials were recorded manually by using a stopwatch. […] Discrimination index (DI) was used to measure object recognition and is calculated as the difference in time exploring the novel (TN) versus familiar object (TF), then dividing this value by the total time spent exploring the two objects in the test trial. […]

In the case of `Cc1cc(NC(=O)Nc2ccc(Br)s2)n(-c2ccccc2)n1` [GAT1508, 1-(5-bromothiophen-2-yl)-3-(3-methyl-1-phenyl-1H-pyrazol-5-yl)urea], the EC50 (GIRK1/2(I-V)) is reported as 500 ± 110 nM, the EMAX (GIRK1/2(I-V)) is reported as 1.61±0.03 and the Emax (GIRK1/2(I-V); read-out: EMAX, % of the control GIRK1/2) is reported as 42%. For the same compound, the “discrimination index (in words)” value [1] was “similar”.
